Patent publication US9744181B2, “Compositions and methods for combination antiviral therapy” (priority 2003, dated 2017)
Counter-ions that a name gives are not always drawn.

Columns and labels:
[1] = combination tablet, six months at 40° C./75% RH; for loss in % label strength: with desiccant, significant defined as ≧5% degradation
HIV-1 = settings: in combination with recombinant soluble CD4 castanosperinine and recombinant interferon-α; cited from earlier work
[2] = test system: normal human bone marrow progenitor cells; settings: AZT together with recombinant interferon-α; cited from earlier work
HIV replication = settings: in combination with PMPA, d4T, ddC, nelfinavir, ritonavir, and saquinavir; cited from earlier work
HIV = settings: patients, once-a-day dose of 200 mg

CC(C)OC(=O)OCOP(=O)(CO[C@H](C)Cn1cnc2c(N)ncnc21)OCOC(=O)OC(C)C [Tenofovir disoproxil fumarate, 9-[(R)-2-[[bis[[(isopropoxycarbonyl)oxy]methoxy]phosphinyl]methoxy]propyl]adenine fumarate (1:1)]
increase in the total degradation products ([1]; packaged and stored with 3 grams of desiccant): 1.5%
loss in % label strength [1]: No significant loss

Cc1cn([C@H]2C[C@H](N=[N+]=[N-])[C@@H](CO)O2)c(=O)[nH]c1=O [AZT, 3′-azido, 3′-deoxythymidine]
synergy of antiviral activity in vitro (HIV-1): synergistic antiviral activity
cytotoxic effect [2]: increased cytotoxic effect

CC(C)(C)C(=O)OCOP(=O)(COCCn1cnc2c(N)ncnc21)OCOC(=O)C(C)(C)C [Adefovir dipivoxil]
synergy of inhibition of HIV replication (HIV replication): minor to moderate synergistic inhibition

Nc1nc(=O)n([C@@H]2CS[C@H](CO)O2)cc1F (single isomer, unassigned) [Emtricitabine]
average reduction of viral load (HIV): 99%
loss in % label strength [1]: No significant loss
